# Source: patent US9981962B2, “Pyrazole derivatives as NIK inhibitors” (Janssen Pharmaceutica NV, priority 2014, dated 2018)
# Legend:
# JJN-3 cells = assay: Biological Assay C: antiproliferative activity on JJN-3 cells (CellTiter-Glo); assay type: cell-based, human; conditions: 72 hr treatment, averaged values
# Protocol: (§1) Determination of Antiproliferative Activity on LP-1, L-363 and JJN-3 Cells
# (§2) All compounds tested were dissolved in DMSO and further dilutions were made in culture medium. Final DMSO concentration was 0.3% (v/v) in cell proliferation assays. Viability was assessed using CellTiter-Glo cell viability assay kit (Promega). The human LP-1, L-363 and JJN-3 cells (DSMZ) were cultured in RPMI 1640 medium supplemented with 2 mM L-glutamine, and 10% fetal calf serum (PAA). Cells were routinely kept as suspension cells at 37° C. in a humidified 5% CO2 atmosphere. Cells were passaged at a seeding density of 0.2×10^6/ml twice a week. Cells were seeded in black tissue culture treated 96-well plates (Perkin Elmer). Densities used for plating ranged from 2,000 to 6,000 cells per well in a total volume of 75 μl medium. After twenty four hours, drugs and/or solvents were added (25 μl) to a final volume of 100 μl. Following 72 hr of treatment plates were removed from the incubator and allowed to equilibrate to room temperature for approx 10 min. 100 ut CellTiter-Glo reagent was added to each well that was then covered (Perkin Elmer Topseal) and shaken on plate shaker for 10 min. Luminescence was measured on a HTS Topcount (Perkin Elmer). Within an experiment, the results for each treatment were the mean of 2 replicate wells. For initial screening purposes, compounds were tested using a 9 point dilution curve (serial 1:3 dilutions). For each experiment, controls (containing no drug) and a blank incubation (containing cells read at the time of compound addition) were run in parallel. The blank value was subtracted from all control and sample values. For each sample, the mean value for cell growth (in relative light units) was expressed as a percentage of the mean value for cell growth of the control.
# L-363 cells = assay: Biological Assay C: antiproliferative activity on L-363 cells (CellTiter-Glo); assay type: cell-based, human; conditions: 72 hr treatment, averaged values
# Protocol: as §1, §2
# [1] = biological target: Recombinant Human NF-kappaB-Inducing Kinase (NIK/MAP3K14) (Homo sapiens, UniProt Q99558); assay: Biological Assay A2: inhibition of auto-phosphorylation of recombinant human NIK/MAP3K14 (AlphaScreen); assay type: biochemical; conditions: 0.2 nM GST-tagged NIK, 25 microM ATP, 1 h at 25° C., averaged values
# Protocol: Inhibition of Auto-Phosphorylation of Recombinant Human NF-kappaB-Inducing Kinase (NIK/MAP3K14) Activity (AlphaScreen®)
# NIK/MAP3K14 auto-phosphorylation activity was measured using the AlphaScreen® (αscreen) format (Perkin Elmer). All compounds tested were dissolved in dimethyl sulfoxide (DMSO) and further dilutions were made in assay buffer. Final DMSO concentration was 1% (v/v) in assays. Assay buffer was 50 mM Tris pH 7.5 containing 1 mM EGTA (ethylene glycol tetraacetic acid), 1 mM DTT (dithiothreitol), 0.1 mM Na3VO4, 5 mM MgCl2, 0.01% Tween® 20. Assays were carried out in 384 well Alphaplates (Perkin Elmer). Incubations consisted of compound, 25 microM Adenosine-5′-triphosphate (ATP), and 0.2 nM NIK/MAP3K14. Incubations were initiated by addition of GST-tagged NIK/MAP3K14 enzyme, carried out for 1 h at 25° C. and terminated by addition of stop buffer containing anti-phospho-IKK Ser176/180 antibody. Protein A Acceptor and Glutathione-Donor beads were added before reading using an EnVision® Multilabel Plate Reader (Perkin Elmer). Signal obtained in the wells containing blank samples was subtracted from all other wells and IC50's were determined by fitting a sigmoidal curve to % inhibition of control versus Log10 compound concentration.
# LP-1 cells = assay: Biological Assay C: antiproliferative activity on LP-1 cells (CellTiter-Glo); assay type: cell-based, human; conditions: 72 hr treatment, averaged values
# Protocol: as §1, §2
# Recombinant Human NF-kappaB-Inducing Kinase (NIK/MAP3K14), sequence (Q99558 whole entry): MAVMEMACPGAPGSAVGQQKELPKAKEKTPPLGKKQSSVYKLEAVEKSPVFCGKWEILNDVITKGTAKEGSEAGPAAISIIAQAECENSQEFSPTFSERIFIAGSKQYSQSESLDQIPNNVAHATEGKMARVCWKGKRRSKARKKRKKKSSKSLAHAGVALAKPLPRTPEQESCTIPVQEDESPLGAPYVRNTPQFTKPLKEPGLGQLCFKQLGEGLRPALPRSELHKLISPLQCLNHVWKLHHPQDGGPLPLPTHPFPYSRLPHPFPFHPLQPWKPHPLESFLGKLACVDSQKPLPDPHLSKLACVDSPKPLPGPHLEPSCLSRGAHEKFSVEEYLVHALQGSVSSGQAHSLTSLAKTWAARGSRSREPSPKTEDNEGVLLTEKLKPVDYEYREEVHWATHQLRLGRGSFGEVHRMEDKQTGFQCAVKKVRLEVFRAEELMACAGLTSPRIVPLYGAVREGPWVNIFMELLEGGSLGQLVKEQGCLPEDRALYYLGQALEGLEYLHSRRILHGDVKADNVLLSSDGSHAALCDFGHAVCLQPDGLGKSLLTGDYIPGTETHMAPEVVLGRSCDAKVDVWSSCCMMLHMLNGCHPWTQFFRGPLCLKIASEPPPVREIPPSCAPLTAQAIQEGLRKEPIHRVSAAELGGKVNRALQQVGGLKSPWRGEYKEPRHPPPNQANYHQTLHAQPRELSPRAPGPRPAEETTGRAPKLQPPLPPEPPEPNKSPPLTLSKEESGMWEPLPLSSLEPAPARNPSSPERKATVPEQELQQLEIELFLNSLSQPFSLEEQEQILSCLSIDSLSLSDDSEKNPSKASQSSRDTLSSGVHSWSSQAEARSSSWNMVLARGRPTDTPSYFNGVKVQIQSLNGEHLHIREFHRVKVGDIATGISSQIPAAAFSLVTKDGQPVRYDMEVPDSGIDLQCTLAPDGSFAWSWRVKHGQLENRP
Structure (SMILES),IC50 [1] [nM],EC50 (JJN-3 cells) [nM],EC50 (L-363 cells) [nM],EC50 (LP-1 cells) [nM],"EC50 (JJN-3 cells; Homo sapiens, JJN-3, 72 h) [nM]","EC50 (L-363 cells; Homo sapiens, L-363, 72 h) [nM]","EC50 (LP-1 cells; Homo sapiens, LP-1, 72 h) [nM]"
"[2H]C([2H])([2H])C(O)(C#Cc1cc2c(-c3c[nH]nc3Cl)cn(C3CCCN(CC)C3)c2cc1F)C([2H])([2H])[2H] (single isomer, unassigned) [Compound 32]",76,437,310,407,–,–,–
[2H]C([2H])([2H])C(O)(C#Cc1cc2c(-c3c[nH]nc3Cl)cn(C3CCN(C4CC4)CC3)c2cc1F)C([2H])([2H])[2H] [Compound 15],71,–,–,–,608,265,581
CN1CCC(n2cc(-c3c[nH]nc3Cl)c3cc(C#CC(C)(C)O)c(F)cc32)CC1 [Compound 20],21,–,–,–,61,43,111
CCn1cc(-c2c[nH]nc2Cl)c2cc(C#CC(C)(C)O)c(F)c(F)c21 [Compound 25],86,–,–,–,2230,4350,3230
CCn1cc(-c2cn[nH]c2)c2cc(C#CC(C)(C)O)cc(F)c21 [Compound 26],51,–,–,–,1570,1130,2210
CN1CC(n2cc(-c3c[nH]nc3Cl)c3cc(C#CC(C)(C)O)c(F)cc32)C1 [Compound 29],50,–,–,–,375,176,758
[2H]C([2H])([2H])C(O)(C#Cc1cc2c(-c3c[nH]nc3Cl)cn(C3CCCN(CC)C3)c2cc1F)C([2H])([2H])[2H] (centres unmarked) [Compound 30],126,–,201,–,379,–,397
Cc1nc(C(C)(O)C#Cc2cc3c(-c4c[nH]nc4Cl)cn(C4CCN(C)CC4)c3cc2F)no1 (centres unmarked) [Compound 35],84,–,–,–,1360,1090,4580
CN1CCC(n2cc(-c3c[nH]nc3Cl)c3cc(C#CC4(O)CCCC4)c(F)cc32)CC1 [Compound 36],–,–,–,–,1220,845,1210

# Now from value to compound, other results behind:
IC50 [1] [nM],Structure (SMILES),EC50 (JJN-3 cells) [nM],EC50 (L-363 cells) [nM],EC50 (LP-1 cells) [nM],"EC50 (JJN-3 cells; Homo sapiens, JJN-3, 72 h) [nM]","EC50 (L-363 cells; Homo sapiens, L-363, 72 h) [nM]","EC50 (LP-1 cells; Homo sapiens, LP-1, 72 h) [nM]"
146,"[2H]C([2H])([2H])C(O)(C#Cc1cc2c(-c3c[nH]nc3Cl)cn(C3CCCN(CC)C3)c2cc1F)C([2H])([2H])[2H] (single isomer, unassigned) [Compound 31]",606,436,731,–,–,–
8510,[2H]c1n[nH]c([2H])c1-c1cn(CC)c2cc(F)c(C#CC(C)(C)O)cc12 [Compound 16],–,–,–,–,–,14200
183,COCCCn1cc(-c2c[nH]nc2Cl)c2cc(C#CC(C)(O)C3CC3)c(F)cc21 (centres unmarked) [Compound 17],–,–,–,1520,3240,1400
33,COCCCn1cc(-c2c[nH]nc2Cl)c2cc(C#CC(C)(C)O)c(F)cc21 [Compound 18],–,–,–,706,1180,1510
190,CN1CCC(n2cc(-c3c[nH]nc3Cl)c3cc(C#CC(C)(O)C4CC4)c(F)cc32)CC1 (centres unmarked) [Compound 19],–,–,–,811,632,749
67,CC(O)(C#Cc1cc2c(-c3c[nH]nc3Cl)cn(CCCO)c2cc1F)C1CC1 (centres unmarked) [Compound 21],–,–,–,1090,1930,3510
204,CCn1cc(-c2c[nH]nc2Cl)c2cc(C#CC(C)(C)O)cc(Cl)c21 [Compound 23],–,–,–,2740,5400,3610
552,CCn1cc(-c2cn[nH]c2)c2cc(C#CC(C)(C)O)cc(C(F)(F)F)c21 [Compound 27],–,–,–,–,–,–
554,CCn1cc(-c2cn[nH]c2)c2cc(C#CC(C)(C)O)cc(C#N)c21 [Compound 28],–,–,–,–,–,–
18,CN1CCC(n2cc(-c3c[nH]nc3Cl)c3cc(C#CC(C)(O)c4nccs4)c(F)cc32)CC1 (centres unmarked) [Compound 33],–,–,–,624,875,1610
42,Cc1cc(C(C)(O)C#Cc2cc3c(-c4c[nH]nc4Cl)cn(C4CCN(C)CC4)c3cc2F)no1 (centres unmarked) [Compound 34],–,–,–,1380,1220,2450
